Source: ChEMBL document CHEMBL1212841, “Mycenaaurin A, an antibacterial polyene pigment from the fruiting bodies of Mycena aurantiomarginata” (2010)

Test system: Bacillus pumilus
Assay: Antimicrobial activity Bacillus pumilus at 0.5 umol/disk by disk diffusion method
Format: functional

## CC(=O)N[C@@H](CCO[C@H](C)C/C=C/CC[C@@H](O)C/C=C/C=C/C=C/C=C/C=C/C=C/c1cc(O)c(CC[C@H](N)C(=O)O)c(=O)o1)C(=O)O [MYCENAAURIN A]
  inhibition zone (IZ): 2.5 cm
